Converted amounts (≈) assume the structure as drawn.
Tests used:
[1] = molecular target: T1, P-selectin glycoprotein ligand 1 (Homo sapiens) (UniProt Q14242); experiment: Inhibition of recombinant PSGL-1 at 250 uM by surface plasmon resonance assay
T1 sequence (whole entry): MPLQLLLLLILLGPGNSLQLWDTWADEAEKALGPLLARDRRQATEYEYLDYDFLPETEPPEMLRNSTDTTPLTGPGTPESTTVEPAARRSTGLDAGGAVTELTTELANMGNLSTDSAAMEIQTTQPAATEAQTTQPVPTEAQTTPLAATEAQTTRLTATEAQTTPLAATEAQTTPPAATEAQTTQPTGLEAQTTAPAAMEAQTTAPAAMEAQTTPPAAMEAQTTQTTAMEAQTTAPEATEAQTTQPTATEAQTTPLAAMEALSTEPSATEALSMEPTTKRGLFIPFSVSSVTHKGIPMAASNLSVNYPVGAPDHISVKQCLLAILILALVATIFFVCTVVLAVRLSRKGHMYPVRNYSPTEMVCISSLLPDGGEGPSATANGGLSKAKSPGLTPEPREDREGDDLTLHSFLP

CYP2C9 = CYP2C9 (Homo sapiens, UniProt P11712); experiment: Inhibition of CYP2C9 at 3 uM; assay type: ADME
CYP2C9, sequence (P11712 whole entry): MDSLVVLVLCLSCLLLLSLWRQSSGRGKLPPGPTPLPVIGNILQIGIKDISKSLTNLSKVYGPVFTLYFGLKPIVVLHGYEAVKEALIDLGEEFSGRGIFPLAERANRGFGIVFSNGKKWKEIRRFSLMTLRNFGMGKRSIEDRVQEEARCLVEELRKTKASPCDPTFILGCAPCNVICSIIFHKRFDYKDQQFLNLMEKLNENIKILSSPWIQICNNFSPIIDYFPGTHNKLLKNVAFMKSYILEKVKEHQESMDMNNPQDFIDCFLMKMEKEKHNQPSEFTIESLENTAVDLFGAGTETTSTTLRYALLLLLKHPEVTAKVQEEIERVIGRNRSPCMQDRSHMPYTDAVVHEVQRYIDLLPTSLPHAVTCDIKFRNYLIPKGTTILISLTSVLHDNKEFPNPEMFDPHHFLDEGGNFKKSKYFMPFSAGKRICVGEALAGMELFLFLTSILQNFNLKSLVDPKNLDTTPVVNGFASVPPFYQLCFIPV

[2] = molecular target: T2, P-selectin glycoprotein ligand 1 (Homo sapiens, UniProt Q14242); experiment: Inhibition of recombinant PSGL-1 by surface plasmon resonance assay
T2 sequence (Q14242 whole entry): T1 sequence (whole entry)

[3] = Aqueous solubility of the compound at pH 6.6; assay type: physicochemical; conditions: aqueous solution
[4] = Oral bioavailability in Sprague-Dawley rat at 10 mg/kg; assay type: ADME, organism-based; conditions: in vivo
[5] = Clearance in Sprague-Dawley rat at 3 mg/kg, iv and 10 mg/kg, po; assay type: ADME, organism-based; conditions: in vivo
Rattus norvegicus = experiment: Dose normalized AUC in Sprague-Dawley rat measured per mg of plasma at 3 mg/kg, iv and 10 mg/kg, po; assay type: ADME, organism-based; conditions: in vivo
Mus musculus = experiment: Reduction of leukocytes rolling flux in acute intravital microscopy model of C57B6 mouse cremasteric postcapillary venules at 50 mg/kg, po after 35 mins relative to control; assay type: functional; design: scale not given: the % may be the effect or the level left

Compound | inhibition [1] [%] | solubility [3] [µg/mL] | other results
Cc1cc(C(F)(F)F)cc2c(C(=O)O)c(O)c(C3(c4ccc(Cl)cc4)CC3)nc12 | 40 | – | inhibition at 3 µM (CYP2C9): 42%
Cc1cc(C(F)(F)F)c2nc(C3(c4ccccc4)CC3)c(O)c(C(=O)O)c2c1 | 40 | – | inhibition at 3 µM (CYP2C9): 87%
CCc1cc(C(F)(F)F)c2nc(C3(c4ccc(Cl)cc4)CC3)c(O)c(C(=O)O)c2c1 | < 10 | – | inhibition at 3 µM (CYP2C9): 81%
CC(=O)N[C@H]1[C@H]([C@H](O)[C@H](O)CO)O[C@@](O[C@H]2[C@@H](O)[C@@H](CO)O[C@@H](O[C@@H]([C@H](O[C@@H]3O[C@@H](C)[C@@H](O)[C@@H](O)[C@@H]3O)[C@H](C=O)NC(C)=O)[C@H](O)CO)[C@@H]2O)(C(=O)O)C[C@@H]1O [SIALYL LEWIS X] | – | – | IC50 [2]: 15000 µM
O=C(O)c1c(O)c(C2(c3ccc(Cl)cc3)CC2)nc2c(C(F)(F)F)cc(Br)cc12 | < 10 | – | inhibition at 3 µM (CYP2C9): 65%
O=C(O)c1c(O)c(C2(c3cccc(Cl)c3)CC2)nc2c(C(F)(F)F)cccc12 | 66 | 300 (≈ 736 µM) | –
O=C(O)c1c(O)c(C2(c3ccc(F)cc3)CC2)nc2c(C(F)(F)F)cccc12 | 56 | 2900 (≈ 7410 µM) | bioavailability [4]: 39%; clearance [5]: 0.5 mL/min/kg; AUC (Rattus norvegicus): 14282 ng·h/mL
CC(c1ccccc1)c1nc2c(C(F)(F)F)cccc2c(C(=O)O)c1O (centres undefined) | 50 | 1550 (≈ 4290 µM) | –
O=C(O)c1c(O)c(C2(c3ccccc3)CC2)nc2c3c(ccc12)CCCC3 | – | – | IC50 [2]: 250 µM; bioavailability [4]: 45%; clearance [5]: 3.9 mL/min/kg; AUC (Rattus norvegicus): 1925 ng·h/mL
CC(C)c1cccc2c(C(=O)O)c(O)c(C3(c4ccccc4)CC3)nc12 | – | 370 (≈ 1070 µM) | bioavailability [4]: 100%; clearance [5]: 9 mL/min/kg; AUC (Rattus norvegicus): 2663 ng·h/mL
CC(Cc1nc2c(C(F)(F)F)cccc2c(C(=O)O)c1O)c1ccccc1 (centres undefined) | 46 | 680 (≈ 1810 µM) | –
O=C(O)c1c(O)c(C2(c3ccc(OC(F)(F)F)cc3)CC2)nc2c(C(F)(F)F)cccc12 | 29 | – | –
Cc1cc(C)c2nc(C3(c4ccccc4)CC3)c(O)c(C(=O)O)c2c1 | 20 | – | inhibition at 3 µM (CYP2C9): 54%
O=C(O)c1c(O)c(Cc2ccc(Cl)cc2)nc2c(C(F)(F)F)cccc12 | 40 | 440 (≈ 1150 µM) | –
Cc1cc(C)c2nc(C3(c4ccc(F)cc4)CC3)c(O)c(C(=O)O)c2c1 | < 10 | – | inhibition at 3 µM (CYP2C9): 55%
CCc1cc(C(F)(F)F)cc2c(C(=O)O)c(O)c(C3(c4ccc(Cl)cc4)CC3)nc12 | < 10 | – | inhibition at 3 µM (CYP2C9): 43%
CC(C)C(c1ccccc1)c1nc2c(C(F)(F)F)cccc2c(C(=O)O)c1O (centres undefined) | 58 | 30 (≈ 77 µM) | –
CC(C)c1cccc2c(C(=O)O)c(O)c(C3(c4ccc(F)cc4)CC3)nc12 | – | 2500 (≈ 6840 µM) | bioavailability [4]: 65%; clearance [5]: 8.7 mL/min/kg; AUC (Rattus norvegicus): 1263 ng·h/mL
CC(c1ccccc1)c1nc2c3c(ccc2c(C(=O)O)c1O)CCCC3 (centres undefined) | – | – | IC50 [2]: 175 µM; bioavailability [4]: 66%; clearance [5]: 9 mL/min/kg; AUC (Rattus norvegicus): 1259 ng·h/mL
CCC(c1ccccc1)c1nc2c(C(F)(F)F)cccc2c(C(=O)O)c1O (centres undefined) | 55 | 600 (≈ 1600 µM) | –
O=C(O)c1c(O)c(Cc2ccccc2)nc2c3c(ccc12)CCCC3 | – | – | IC50 [2]: 413 µM
Cc1ccc(C2(c3nc4c(C)c(C)ccc4c(C(=O)O)c3O)CC2)cc1 | 24 | – | inhibition at 3 µM (CYP2C9): 47%
O=C(O)c1c(O)c(C2(c3ccccc3)CC2)nc2c(C(F)(F)F)cccc12 | 44 | 2100 (≈ 5630 µM) | –
CCc1cccc2c(C(=O)O)c(O)c(C3(c4ccc(C(F)(F)F)cc4)CC3)nc12 | – | 250 (≈ 623 µM) | bioavailability [4]: 100%; clearance [5]: 9.4 mL/min/kg; AUC (Rattus norvegicus): 2428 ng·h/mL
O=C(O)c1c(O)c(C2Cc3ccccc3C2)nc2c(C(F)(F)F)cccc12 | 35 | 700 (≈ 1880 µM) | bioavailability [4]: 49%; clearance [5]: 28 mL/min/kg; AUC (Rattus norvegicus): 340 ng·h/mL

Continued, in another order:

inhibition [1] [%] | solubility [3] [µg/mL] | Compound | other results
15 | – | O=C(O)c1c(O)c(C2(c3cccs3)CC2)nc2c(C(F)(F)F)cccc12 | –
7 | – | O=C(O)c1c(O)c(C2(c3ccsc3)CC2)nc2c(C(F)(F)F)cccc12 | –
65 | – | Cc1cc(C(F)(F)F)c2nc(C3(c4ccc(Cl)cc4)CC3)c(O)c(C(=O)O)c2c1 | inhibition at 3 µM (CYP2C9): 72%
45 | 800 (≈ 2230 µM) | O=C(O)c1c(O)c(C2Cc3ccccc32)nc2c(C(F)(F)F)cccc12 (centres undefined) | –
26 | – | COc1ccc(C2(c3nc4c(C(F)(F)F)cccc4c(C(=O)O)c3O)CC2)cc1 | –
– | 140 (≈ 381 µM) | CCc1cccc2c(C(=O)O)c(O)c(C3(c4ccc(Cl)cc4)CC3)nc12 | bioavailability [4]: 100%; clearance [5]: 2.4 mL/min/kg; AUC (Rattus norvegicus): 13986 ng·h/mL
64 | 420 (≈ 929 µM) | O=C(O)c1c(O)c(C2(c3ccc(Br)cc3)CC2)nc2c(C(F)(F)F)cccc12 | –
47 | – | Cc1cc(C)c2nc(C3(c4ccc(Cl)cc4)CC3)c(O)c(C(=O)O)c2c1 | inhibition at 3 µM (CYP2C9): 17%
< 10 | – | O=C(O)c1c(O)c(C2(c3ccc(Cl)cc3)CC2)nc2c(C(F)(F)F)cc(Cl)cc12 | inhibition at 3 µM (CYP2C9): 72%
40 | – | CCc1cc(C(F)(F)F)c2nc(C3(c4ccccc4)CC3)c(O)c(C(=O)O)c2c1 | inhibition at 3 µM (CYP2C9): 86%
47 | 200 (≈ 453 µM) | O=C(O)c1c(O)c(C2(c3ccc(C(F)(F)F)cc3)CC2)nc2c(C(F)(F)F)cccc12 | bioavailability [4]: 31%; clearance [5]: 0.4 mL/min/kg; AUC (Rattus norvegicus): 13800 ng·h/mL
59 | 2810 (≈ 7490 µM) | CC(C)(c1ccccc1)c1nc2c(C(F)(F)F)cccc2c(C(=O)O)c1O | bioavailability [4]: 93%; clearance [5]: 3.7 mL/min/kg; AUC (Rattus norvegicus): 1472 ng·h/mL
11 | – | Cc1ccc(C2(c3nc4c(C)cc(C)cc4c(C(=O)O)c3O)CC2)cc1 | inhibition at 3 µM (CYP2C9): 55%
0 | – | O=C(O)c1c(O)c(C2(c3ccc(Cl)cc3)CCC2)nc2c(C(F)(F)F)cccc12 | –
57 | 760 (≈ 1860 µM) | O=C(O)c1c(O)c(C2(c3ccccc3Cl)CC2)nc2c(C(F)(F)F)cccc12 | bioavailability [4]: 19%; clearance [5]: 2.4 mL/min/kg; AUC (Rattus norvegicus): 1336 ng·h/mL
< 10 | – | CC(C)C(c1ccc(Cl)cc1)c1nc2c(C(F)(F)F)cccc2c(C(=O)O)c1O (centres undefined) | –
– | 1500 (≈ 3180 µM) | O=C(O)c1c(O)c(C2(c3ccccc3)CC2)nc2c(C(O)(C(F)(F)F)C(F)(F)F)cccc12 | Activity (Mus musculus): 60%; bioavailability [4]: 44%; clearance [5]: 1 mL/min/kg; AUC (Rattus norvegicus): 5035 ng·h/mL
46 | 1000 (≈ 2270 µM) | O=C(O)c1c(O)c(C2(c3cccc(C(F)(F)F)c3)CC2)nc2c(C(F)(F)F)cccc12 | –
49 | 1550 (≈ 4130 µM) | CC(Cc1ccccc1)c1nc2c(C(F)(F)F)cccc2c(C(=O)O)c1O (centres undefined) | –
– | 190 (≈ 517 µM) | Cc1ccc2c(C(=O)O)c(O)c(C3(c4ccc(Cl)cc4)CC3)nc2c1C | bioavailability [4]: 75%; clearance [5]: 7 mL/min/kg; AUC (Rattus norvegicus): 1735 ng·h/mL
